One compound from patent US20060116401A1, “Antibacterial compounds” (AstraZeneca AB, priority 2002, published 2006) can be followed below.

What all share (format): cell-based
One experiment has as its system Moraxella catarrhalis. Nature of the experiment: MIC, fastidious Gram negative organisms in Mueller-Hinton broth. The note with it: Mueller-Hinton broth with hemin and NAD, aerobic, 24 hours, 37° C. As for the experimental part:
(§1) The following results were obtained on a standard in-vitro test system The activity is described in terms of the minimum inhibitory concentration (MIC) determined by the agar-dilution technique with an inoculum size of 10^4 CFU/spot. Typically, compounds are active in the range 0.01 to 256 μg/ml.
(§2) Streptococci and enterococci were tested on agar supplemented with 5% defibrinated horse blood, an inoculum of 10^4 CFU/spot and an incubation temperature of 37° C. in an atmosphere of 5% carbon dioxide for 48 hours—blood is required for the growth of some of the test organisms. Fastidious Gram negative organisms were tested in Mueller-Hinton broth, supplemented with hemin and NAD, grown aerobically for 24 hours at 37° C., and with an innoculum of 5×10^4 CPU/well.

The subject of the next experiment is Haemophilus influenzae. Described as above. The settings on record: Mueller-Hinton broth with hemin and NAD, aerobic, 24 hours, 37° C. The method, then: as §1, §2
Experiment [1] concerns Staphylococcus aureus MSQS (methicillin sensitive and quinolone sensitive). Nature of the experiment: MIC, agar dilution, staphylococci (MSQS strain). The settings on record: 10^4 CFU/spot, 37° C., 24 hours. The method, then:
as §1
(§3) Staphylococci were tested on agar, using an inoculum of 10^4 CFU/spot and an incubation temperature of 37° C. for 24 hours—standard test conditions for the expression of methicillin resistance.
For orientation: Agar dilution tests growth on a series of plates holding different concentrations.

A further experiment has as its system Enterococcus faecium. In words: MIC, agar with 5% defibrinated horse blood, enterococci. The note with it: agar + 5% horse blood, 10^4 CFU/spot, 37° C., 5% carbon dioxide, 48 hours. As for the experimental part:
as §1, §2

Another experiment concerns Streptococcus pneumoniae. In words: MIC, agar with 5% defibrinated horse blood, streptococci. The note with it: agar + 5% horse blood, 10^4 CFU/spot, 37° C., 5% carbon dioxide, 48 hours. As for the experimental part: as §1, §2
For experiment [2], the system named is Staphylococcus aureus MRQR (methicillin resistant and quinolone resistant). Nature of the experiment: MIC, agar dilution, staphylococci (MRQR strain). The note with it: 10^4 CFU/spot, 37° C., 24 hours. As for the experimental part:
as §1, §3

For experiment [3], the system named is Linezolid Resistant Streptococcus pneumoniae. Nature of the experiment: MIC, agar with 5% defibrinated horse blood, linezolid resistant streptococci. The note with it: agar + 5% horse blood, 10^4 CFU/spot, 37° C., 5% carbon dioxide, 48 hours. As for the experimental part: as §1, §2

Each structure is given as a SMILES string. ≈ marks a conversion by molar mass, not a printed value.

As to `O=C1O[C@@H](Cn2ccnn2)CN1c1ccc(-c2ccc(C3=NOC(CO)C3)c(F)c2)c(F)c1` (stereo partly drawn) [Example 4, (5R)-3-{2,3′-Difluoro-4′-[5-(hydroxymethyl)-4,5-dihydroisoxazol-3-yl]-1,1′-biphenyl-4-yl}-5-(1H-1,2,3-triazol-1-ylmethyl)-1,3-oxazolidin-2-one], the MIC turned out to be 0.5 µg/mL (≈ 1.1 µM) against Moraxella catarrhalis; 4 µg/mL (≈ 8.78 µM) with Haemophilus influenzae; 0.5 µg/mL (≈ 1.1 µM) in experiment [1]; 0.5 µg/mL in the experiment with Enterococcus faecium; 0.13 µg/mL with Streptococcus pneumoniae; 0.5 µg/mL (≈ 1.1 µM) in experiment [2]. Besides, the MIC in experiment [3] is 1 µg/mL.
